Experimental data reported in the supplement of paper PMC10307832.

Columns and labels:
Assay in all cases: relative viability (nuclei count vs DMSO), 5 days (fraction); higher = more cells survive
A-427 = tested on: A-427
In short: (§1)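 Lung cancer cell lines were pin-tool dosed in 1536-well plates on the day after seeding, with either a lone drug or a fixed anchor-drug dose plus five library-drug doses (not always all listed) in √10 steps. Nuclei were counted on 4× images after 5 days. Relative viability is the ratio of treated-well to vehicle-well nuclei counts, with each value a median of duplicate plates.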

BEN = tested on: BEN
In short: as §1

HARA = tested on: HARA
In short: as §1

LCLC-97TM1 = tested on: LCLC-97TM1
In short: as §1

LOU-NH91 = tested on: LOU-NH91
In short: as §1

LU99A = tested on: LU99A
In short: as §1

LXF-289 = tested on: LXF-289
In short: as §1

NCI-H1395 = tested on: NCI-H1395
In short: as §1

NCI-H1563 = tested on: NCI-H1563
In short: as §1

NCI-H1666 = tested on: NCI-H1666
In short: as §1

NCI-H1793 = tested on: NCI-H1793
In short: as §1

NCI-H1915 = tested on: NCI-H1915
In short: as §1

NCI-H2023 = tested on: NCI-H2023
In short: as §1

NCI-H2126 = tested on: NCI-H2126
In short: as §1

NCI-H2170 = tested on: NCI-H2170
In short: as §1

NCI-H2342 = tested on: NCI-H2342
In short: as §1

NCI-H23 = tested on: NCI-H23
In short: as §1

NCI-H322M = tested on: NCI-H322M
In short: as §1

NCI-H441 = tested on: NCI-H441
In short: as §1

NCI-H460 = tested on: NCI-H460
In short: as §1

PC-3 [JPC-3] = tested on: PC-3 [JPC-3]
In short: as §1

SK-LU-1 = tested on: SK-LU-1
In short: as §1

In the case of `COCC1(CO)C(=O)C2CCN1CC2` (centres undefined) [PRIMA-1MET] + Nc1nc2[nH]cc(CCc3ccc(C(=O)N[C@@H](CCC(=O)O)C(=O)O)cc3)c2c(=O)[nH]1 [Pemetrexed] (partner 0.2 µM), the relative viability (A-427; first compound 0.2 µM) is reported as 1.11, the relative viability (A-427; first compound 0.6325 µM) is reported as 0.92 and the relative viability (A-427; first compound 2 µM) is reported as 0.953. It also gave a relative viability (A-427; first compound 6.325 µM) of 1.06, a relative viability (A-427; first compound 20 µM) of 0.962 and a relative viability (BEN; first compound 0.2 µM) of 0.898. It also gave a relative viability (BEN; first compound 0.6325 µM) of 0.421, a relative viability (BEN; first compound 6.325 µM) of 0.801 and a relative viability (BEN; first compound 20 µM) of 0.834. It also gave a relative viability (HARA; first compound 0.2 µM) of 0.278, a relative viability (HARA; first compound 0.6325 µM) of 0.232 and a relative viability (HARA; first compound 2 µM) of 0.209. For the same compound, the relative viability (HARA; first compound 6.325 µM) was 0.243, the relative viability (HARA; first compound 20 µM) was 0.247 and the relative viability (LCLC-97TM1; first compound 0.2 µM) was 0.193. The relative viability (LCLC-97TM1; first compound 0.6325 µM) was 0.198, the relative viability (LCLC-97TM1; first compound 2 µM) was 0.182 and the relative viability (LCLC-97TM1; first compound 6.325 µM) was 0.197. For the same compound, the relative viability (LCLC-97TM1; first compound 20 µM) was 0.21, the relative viability (LOU-NH91; first compound 0.2 µM) was 0.356 and the relative viability (LOU-NH91; first compound 0.6325 µM) was 0.367. The relative viability (LOU-NH91; first compound 2 µM) was 0.405, the relative viability (LOU-NH91; first compound 6.325 µM) was 0.4 and the relative viability (LOU-NH91; first compound 20 µM) was 0.344. The relative viability (LU99A; first compound 0.2 µM) was 0.191, the relative viability (LU99A; first compound 0.6325 µM) was 0.161 and the relative viability (LU99A; first compound 2 µM) was 0.201. For the same compound, the relative viability (LU99A; first compound 6.325 µM) was 0.179, the relative viability (LU99A; first compound 20 µM) was 0.187 and the relative viability (LXF-289; first compound 0.2 µM) was 0.967. It also gave a relative viability (LXF-289; first compound 0.6325 µM) of 0.891, a relative viability (LXF-289; first compound 2 µM) of 1.09 and a relative viability (LXF-289; first compound 6.325 µM) of 0.954. The relative viability (LXF-289; first compound 20 µM) was 0.875, the relative viability (NCI-H1395; first compound 0.2 µM) was 0.842 and the relative viability (NCI-H1395; first compound 2 µM) was 0.771. For the same compound, the relative viability (NCI-H1395; first compound 6.325 µM) was 0.881, the relative viability (NCI-H1395; first compound 20 µM) was 0.154 and the relative viability (NCI-H1563; first compound 0.2 µM) was 0.882. For the same compound, the relative viability (NCI-H1563; first compound 0.6325 µM) was 0.935, the relative viability (NCI-H1563; first compound 6.325 µM) was 0.77 and the relative viability (NCI-H1563; first compound 20 µM) was 0.887. The relative viability (NCI-H1666; first compound 0.2 µM) was 0.949, the relative viability (NCI-H1666; first compound 0.6325 µM) was 0.824 and the relative viability (NCI-H1666; first compound 2 µM) was 0.742. It also gave a relative viability (NCI-H1666; first compound 6.325 µM) of 0.793, a relative viability (NCI-H1666; first compound 20 µM) of 0.814 and a relative viability (NCI-H1793; first compound 0.2 µM) of 0.964. For the same compound, the relative viability (NCI-H1793; first compound 0.6325 µM) was 0.803, the relative viability (NCI-H1793; first compound 6.325 µM) was 1.09 and the relative viability (NCI-H1793; first compound 20 µM) was 0.919. The relative viability (NCI-H1915; first compound 0.2 µM) was 0.54, the relative viability (NCI-H1915; first compound 0.6325 µM) was 0.522 and the relative viability (NCI-H1915; first compound 2 µM) was 0.466. For the same compound, the relative viability (NCI-H1915; first compound 6.325 µM) was 0.511, the relative viability (NCI-H1915; first compound 20 µM) was 0.467 and the relative viability (NCI-H2023; first compound 0.2 µM) was 0.224. The relative viability (NCI-H2023; first compound 0.6325 µM) was 0.23, the relative viability (NCI-H2023; first compound 2 µM) was 0.28 and the relative viability (NCI-H2023; first compound 6.325 µM) was 0.237. For the same compound, the relative viability (NCI-H2023; first compound 20 µM) was 0.147, the relative viability (NCI-H2126; first compound 0.2 µM) was 0.657 and the relative viability (NCI-H2126; first compound 0.6325 µM) was 0.614. It also gave a relative viability (NCI-H2126; first compound 2 µM) of 0.609, a relative viability (NCI-H2126; first compound 6.325 µM) of 0.699 and a relative viability (NCI-H2126; first compound 20 µM) of 0.67. It also gave a relative viability (NCI-H2170; first compound 0.2 µM) of 0.271, a relative viability (NCI-H2170; first compound 0.6325 µM) of 0.25 and a relative viability (NCI-H2170; first compound 2 µM) of 0.274. It also gave a relative viability (NCI-H2170; first compound 6.325 µM) of 0.258, a relative viability (NCI-H2170; first compound 20 µM) of 0.268 and a relative viability (NCI-H2342; first compound 0.2 µM) of 0.789. The relative viability (NCI-H2342; first compound 0.6325 µM) was 0.852, the relative viability (NCI-H2342; first compound 6.325 µM) was 0.691 and the relative viability (NCI-H2342; first compound 20 µM) was 0.753. For the same compound, the relative viability (NCI-H23; first compound 0.2 µM) was 0.425, the relative viability (NCI-H23; first compound 0.6325 µM) was 0.595 and the relative viability (NCI-H23; first compound 2 µM) was 0.443. It also gave a relative viability (NCI-H23; first compound 6.325 µM) of 0.579, a relative viability (NCI-H23; first compound 20 µM) of 0.175 and a relative viability (NCI-H322M; first compound 0.2 µM) of 0.633. It also gave a relative viability (NCI-H322M; first compound 0.6325 µM) of 0.562, a relative viability (NCI-H322M; first compound 6.325 µM) of 0.624 and a relative viability (NCI-H322M; first compound 20 µM) of 0.0887. For the same compound, the relative viability (NCI-H441; first compound 0.2 µM) was 0.24, the relative viability (NCI-H441; first compound 0.6325 µM) was 0.2 and the relative viability (NCI-H441; first compound 2 µM) was 0.271. The relative viability (NCI-H441; first compound 6.325 µM) was 0.274, the relative viability (NCI-H441; first compound 20 µM) was 0.204 and the relative viability (NCI-H460; first compound 0.2 µM) was 0.0602. The relative viability (NCI-H460; first compound 0.6325 µM) was 0.051, the relative viability (NCI-H460; first compound 2 µM) was 0.0601 and the relative viability (NCI-H460; first compound 6.325 µM) was 0.0553. For the same compound, the relative viability (NCI-H460; first compound 20 µM) was 0.0386, the relative viability (PC-3 [JPC-3]; first compound 0.2 µM) was 1.06 and the relative viability (PC-3 [JPC-3]; first compound 0.6325 µM) was 0.975. It also gave a relative viability (PC-3 [JPC-3]; first compound 2 µM) of 1.04, a relative viability (PC-3 [JPC-3]; first compound 6.325 µM) of 1.14 and a relative viability (PC-3 [JPC-3]; first compound 20 µM) of 1.04. The relative viability (SK-LU-1; first compound 0.2 µM) was 1.01, the relative viability (SK-LU-1; first compound 0.6325 µM) was 1.12 and the relative viability (SK-LU-1; first compound 2 µM) was 1.01. The relative viability (SK-LU-1; first compound 6.325 µM) was 0.955 and the relative viability (SK-LU-1; first compound 20 µM) was 0.652.
